Results as given in US9616062B2, “Cyclin dependent kinase inhibitors and methods of use” (priority 2009, dated 2017).

Key:
[1] = test system: RB-deficient small cell lung cancer cell lines (H69, H82, H209, H345); assay: SCLC cell proliferation, WST-1, RB-deficient lines; type: cell-based; conditions: 100 nM, all four RB-deficient cell lines
Description: FIG. 8: CDK4/6 inhibition potentiates proliferation of Rb deficient cells. […] Cell proliferation was assessed using WST-1 reagent. Each data point represents the mean of four replicates +/−SEM. CDK4/6 inhibition increases cell proliferation of RB-deficient cell lines.
Primary normal human renal proximal epithelial cells (American Type Culture Collection (ATCC), Manassas, Va., United States of America) were cultured in renal epithelial cell basal media supplemented with renal epithelial cell growth kit according to the manufacturer's recommendations. […] For the γH2AX assay, cells were fixed, permeabilized, and stained with anti-γH2AX as per γH2AX Flow Kit (Millipore, Billerica, Mass., United States of America). γH2AX levels were assessed by flow cytometry. Cell proliferation was assessed by seeding 1×10^3 cells per well in a 96-well tissue culture plate in 100 μL of growth medium. […] At the end of the recovery period, cell number was quantified using CellTiter-Glo® (Promega, Fitchburg, Wis., United States of America) or WST-1 reagent (TaKaRa Bio USA, Madison, Wis., United States of America). Cellular cytotoxicity was assessed using the TOXILIGHT™ Bioassay kit (Lonza, Basel, Switzerland) which measures cytolysis by quantifying the release of Adenylate Kinase into the culture media. […] 100 μL of TOXILIGHT™ reagent is added and incubated for 5 minutes and read in a luminometer at 1 second/well. […]

[2] = test system: murine splenic B and T cells; assay: Splenic lymphocyte proliferation in mice (Ki67 or BrdU staining); type: in vivo, mouse; conditions: 24 hours treatment, unstimulated mice
Description: Animals were treated with CDK4/6 inhibitor (PD0332991, open bars) or vehicle (shaded bars) for 24 hours and euthanized. Splenocytes were isolated and stained for B and T cell markers. After gating on appropriate populations, Ki67 staining was performed as an indicator of proliferation and S-phase. Error bars show +/−SEM.
FIG. 22: CDK4/6 inhibitors block B-cell proliferation. Animals were treated with CDK4/6 inhibitor (150 mg/kg by daily oral gavage) or vehicle for 4 days, and BrdU in the drinking water for 3 days. After BrdU treatment, animals were euthanized. Splenocytes were isolated and stained for B cell markers. After gating on appropriate populations, BrdU staining was performed as an indicator of proliferation.
Cohorts of wild type mice were treated with vehicle or a CDK4/6 inhibitor as in FIG. 11. […] Unstimulated mice were treated for 24 hours with PD0332991 and homeostatic B cell proliferation measured by Ki67 staining after appropriate sorting. Similar results were obtained using BrdU incorporation to measure splenic B cell proliferation. Similar experiments were undertaken in human cells with B cell receptor stimulation as described in FIG. 12.

CC(=O)c1c(C)c2cnc(Nc3ccc(N4CCNCC4)cn3)nc2n(C2CCCC2)c1=O [PD0332991, 6-acetyl-8-cyclopentyl-5-methyl-2-(5-piperazin-1-yl-pyridin-2-ylamino)-8H-pyrido-[2,3-d]-pyrimidin-7-one]
cell proliferation (WST-1) vs DMSO [1]: increased
splenocyte B and T cell proliferation (Ki67 staining) [2]: blocks T and B cell proliferation
